Results on one molecule are retold here after patent US20160229835A1, “NOVEL PYRIDYLOXYACETYL TETRAHYDROISOQUINOLINE COMPOUNDS USEFUL AS NAMPT INHIBITORS” (ELI LILLY AND COMPANY, priority 2013, published 2016).

Where two headings read alike, the source gives them in different places.

One assay concerns KLE. Briefly: Cell Proliferation Assay ±NA, KLE. Type of assay: cell-based. The note with it: Homo sapiens, endometrium, treatment time 72 hr. The protocol: (§1) The purpose of this assay is to measure the ability of a compound to inhibit proliferation of endometrium, kidney, adrenal gland, and autonomic ganglia cancer cell lines dependent on the NAMPT-mediated NAD^+ formation in the presence or absence of NA (10 μM) in vitro. One day before the planned initiation of compound treatment portion of the assay, one vial of assay ready frozen cells is thawed, and the cells are grown overnight in the media as shown in Table 3 under 5% CO2 at 37° C. Then, the cell layer is briefly rinsed with 0.25% (w/v) Trypsin-0.038% (w/v) EDTA solution followed with the addition of 3.0 ml of Trypsin-EDTA solution. Once the cell layer is dispersed, 8.0 ml of complete growth medium (Table 3) is added and cells are aspirated by gently pipetting. The cell suspension is transferred to a centrifuge tube and centrifuged at 800-1000 rpm for 3-5 minutes. The supernatant is discarded using a vacuum pump. The cell pellet is suspended in a complete medium by gently pipetting. The cell numbers are counted and adjusted to the appropriate density (Table 3). […] The bottom of each plate is pasted with a white back seal and luminescence is recorded using a Flexstation 3 with the following settings: Luminescence and integration time of 500 ms.

The subject of assay [1] is NAMPT-mediated NAD+ formation in A2780 tumors. Briefly: IVTI Assay (NAD+ formation in A2780 tumors). The following applies: A2780 xenograft, female nude mice, oral gavage, after 2 doses (7 hours after second dose); ± SE. Type of assay: in vivo. On the procedure: The purpose of this assay is to measure the ability of a test compound to inhibit the NAMPT-mediated NAD^+ formation in tumors in an animal model. A2780 cells (ATCC) are grown as described above for the NAD^+ assay (Assay for NAD^+/NMN Levels in A2780 Cells). The cells (5×10^6/animal) are mixed with MATRIGEL® (1:1) and implanted subcutaneously into the rear flank of the mice (female nude mice, Harlan). The implanted tumor cells grow as solid tumors. The tumor volume and body weight are measured twice a week with a caliper. After tumor volume reaches approximately 300-500 mm^3, animals are randomized and grouped into positive control (described herein; 5 animals/group) and compound treatment groups (5 animals/group). The compound (formulated in 20% of CAPTISOL® and 25 mM of phosphate buffer, pH 2) and positive control (20% of CAPTISOL® and 25 mM of phosphate buffer, pH 2) are administered by oral gavage. Compound doses are in the range of 0.10 to 25 mg/kg. […] The resulting preparations (0.5 mL each) are filtered (with a 10K cutoff filter) to remove hemoglobin because red color interferes with the absorbance. […] NAD^+ quantitation is carried out using a NAD^+/NADH cycling assay kit (BioVision, cat#337-100-1). […] The percent inhibition of compound treated groups is calculated relative to the minimum inhibition groups. […]

For the next assay, the system named is Caki-1. Put plainly: Cell Proliferation Assay ±NA, Caki-1. The following applies: Homo sapiens, Caki-1, kidney, treatment time 72 hr. The class given is cell-based. On the procedure:
as §1

Another assay has as its system NCI-H295. Put plainly: Cell Proliferation Assay ±NA, NCI-H295. Type of assay: cell-based. The following applies: NCI-H295, adrenal gland, treatment time 144 hr. The protocol: as §1
A further assay deals with SW13. Briefly: Cell Proliferation Assay ±NA, SW13. Type of assay: cell-based. The note with it: Homo sapiens, SW13, adrenal gland, treatment time 72 hr. On the procedure:
as §1

Another assay deals with AN3-CA. Put plainly: Cell Proliferation Assay ±NA, AN3-CA. Type of assay: cell-based. The note with it: Homo sapiens, endometrium, treatment time 72 hr. On the procedure:
as §1

Another assay deals with U031. Briefly: Cell Proliferation Assay ±NA, U031. The class given is cell-based. The note with it: U031, kidney, treatment time 72 hr. On the procedure: as §1
Setting [2] is: NA 0.0 μM, read-out: IC50 (μM) NA (0.0 μM).
Where [3] appears, read: NA 10 μM, read-out: IC50 (μM) NA (10 μM).

Broadly, the IC50 is the midpoint of a concentration-inhibition curve.

For the molecule `CC(C)(O)CS(=O)(=O)Nc1ccc2c(c1)CCN(C(=O)COc1cccnc1)C2` [Example 1, 2-Hydroxy-2-methyl-N-[2-[2-(3-pyridyloxy)acetyl]-3,4-dihydro-1H-isoquinolin-6-yl]propane-1-sulfonamide], the IC50 in the assay with KLE (setting [2]) is 0.04 µM; in the assay on KLE (setting [3]) it was above 2 µM; with Caki-1 (setting [2]), 0.13 µM; with Caki-1 (setting [3]) it was 0.11 µM; in the assay on NCI-H295 (setting [2]), 0.1 µM; with NCI-H295 (setting [3]) it was 0.06 µM. Also, the IC50 in the assay with SW13 (setting [2]) is 0.05 µM; with SW13 (setting [3]), 0.02 µM; with AN3-CA (setting [2]) it was 0.02 µM; in the assay on AN3-CA (setting [3]), 0.02 µM; in the assay with U031 (setting [2]) it was 0.06 µM; in the assay on U031 (setting [3]), 0.06 µM. In addition, the “TED50 (dose for 50% inhibition of NAD+ formation in tumor)” value in assay [1] was 2.56 ± 0.37 mg/kg.
